Assay results as given in patent US10011571B2, “Preparation method for aromatic heterocyclic compound used as selective JAK3 and/or JAK1 kinase inhibitor and application of aromatic heterocyclic compound” (SHENZHEN CHIPSCREEN BIOSCIENCES, LTD., priority 2014, dated 2018).

Tests used:
Flt4 = Flt4 (Homo sapiens (Human), UniProt P35916); test: Eurofins IC50Profiler radiometric kinase assay, Flt4; type: biochemical; settings: 9 semilog concentrations
From the text: (§1) A proportion of the compounds of the present invention are subjected to kinase profile screening (KinaseProfiler™)) and enzymatic inhibitory activity (IC50Profiler™)) assay by entrusting Eurofins company (http://www.eurofins.com). Besides the kinases in the JAK family, the kinases that have been screened for their activity also include most Group 3F and Group 4 kinases (ITK, BLK, TBK1, VEGFRs, ERBBs, etc.), and blood system related kinases (Zhang J. et al. 2009, Nat. Rev. Cancer., 9: 28-39). The concentration of the test compound for kinase profile screening is 1 μM, and a gradient of 9 semilog concentration gradients are used to determine IC50. Detection is carried out according to standard procedure of Eurofins Company. Briefly, according to the requirements of different kinase reactions, 0.2 μL test compound (50 μM, dissolved in dimethyl sulfoxide (DMSO)) is added to reaction buffer containing specific kinase (the buffer system containing 20 mM MOPS, 1 mM EDTA, 0.01% Brij-35, 5% Glycerol, 0.1% β-mercaptoethanol, 1 mg/mL BSA, or 50 mM TRIS, 0.1 mM EGTA, 0.1 mM Na3VO4, 0.1% β-mercaptoethanol, 1 mg/mL BSA, based on the type of kinase used). Subsequently, a kinase specific substrate at a final concentration of 50 μM (specific substrate used for specific kinase), 10 mM Mg Acetate and isotope-labeled γ-^33P ATP (radio-activity of about 500 cpm/pmol) are sequentially added to a total volume of 10 μL for the reaction system. After incubation at room temperature for 40 min, the reaction is terminated by adding 3% phosphoric acid solution. The mixture is then transferred to a filter-type low temperature spray dryer (P30 filtermat), and washed by 75 mM phosphoric acid solution for 3 times and by methanol once. After drying, radio-activity is detected. For specific procedure, see the standard procedure provided by Eurofins Company: http://www.eurofins.com/media/9724077/kinaseprofiler_assay_protocol_guide_eurofins_v64.pdf).

[1] = system: IL-4/JAK1 & 3/STAT6 (THP-1); test: Intracellular activity assay, IL-4 induced STAT6 phosphorylation in THP-1; type: cell-based; settings: Homo sapiens; inhibition of STAT6 phosphorylation, THP-1, IL-4 10 ng/mL
From the text: In this experiment, western blot (WB) and flow cytometry are used to evaluate the intracellular activities of the test compounds by comparing the relative levels of the signals of phosphorylated and non-phosphorylated STATs in 5 cell models, including U937, THP-1, CTLL-2, UT-7/EPO and activated human periphery blood cell (hPBC). The primary antibody and secondary antibody used in WB hybridization in this experiment are purchased from Cell Signaling Company (http://www.cellsignal.com). The fluorescence-labeled antibodies used in flow cytometry are purchased from eBiosciences Company (http://www.ebioscience.com).
THP-1 is a monocytic cell line. […] The intracellular inhibitory activity of the compounds on JAK1/3 can be evaluated by detecting the change of the phosphorylation level of STAT6. […]
(2) Protein extraction and WB detection: after extraction, the protein content is determined. […]
(3) Signal detection: the hybridization signal is detected by X-ray imaging. The grey scale signal obtained by scanning is converted to digital signal, and the signal intensities for both phosphorylated STATs and STATs are each calculated to evaluate the phosphorylation inhibitory activities of the compounds on STATs. […]
(2) Cell fixation and fluorescence labeling: the cells are fixed using paraformaldehyde (30 min), and subsequently treated for membrane permeability in chilled methanol (15 min). […]

Flt1 = Flt1 (Homo sapiens (Human), UniProt P17948); test: Eurofins IC50Profiler radiometric kinase assay, Flt1; type: biochemical; settings: 9 semilog concentrations
From the text: as §1

Flt4, sequence (P35916 25-1363, species assumed): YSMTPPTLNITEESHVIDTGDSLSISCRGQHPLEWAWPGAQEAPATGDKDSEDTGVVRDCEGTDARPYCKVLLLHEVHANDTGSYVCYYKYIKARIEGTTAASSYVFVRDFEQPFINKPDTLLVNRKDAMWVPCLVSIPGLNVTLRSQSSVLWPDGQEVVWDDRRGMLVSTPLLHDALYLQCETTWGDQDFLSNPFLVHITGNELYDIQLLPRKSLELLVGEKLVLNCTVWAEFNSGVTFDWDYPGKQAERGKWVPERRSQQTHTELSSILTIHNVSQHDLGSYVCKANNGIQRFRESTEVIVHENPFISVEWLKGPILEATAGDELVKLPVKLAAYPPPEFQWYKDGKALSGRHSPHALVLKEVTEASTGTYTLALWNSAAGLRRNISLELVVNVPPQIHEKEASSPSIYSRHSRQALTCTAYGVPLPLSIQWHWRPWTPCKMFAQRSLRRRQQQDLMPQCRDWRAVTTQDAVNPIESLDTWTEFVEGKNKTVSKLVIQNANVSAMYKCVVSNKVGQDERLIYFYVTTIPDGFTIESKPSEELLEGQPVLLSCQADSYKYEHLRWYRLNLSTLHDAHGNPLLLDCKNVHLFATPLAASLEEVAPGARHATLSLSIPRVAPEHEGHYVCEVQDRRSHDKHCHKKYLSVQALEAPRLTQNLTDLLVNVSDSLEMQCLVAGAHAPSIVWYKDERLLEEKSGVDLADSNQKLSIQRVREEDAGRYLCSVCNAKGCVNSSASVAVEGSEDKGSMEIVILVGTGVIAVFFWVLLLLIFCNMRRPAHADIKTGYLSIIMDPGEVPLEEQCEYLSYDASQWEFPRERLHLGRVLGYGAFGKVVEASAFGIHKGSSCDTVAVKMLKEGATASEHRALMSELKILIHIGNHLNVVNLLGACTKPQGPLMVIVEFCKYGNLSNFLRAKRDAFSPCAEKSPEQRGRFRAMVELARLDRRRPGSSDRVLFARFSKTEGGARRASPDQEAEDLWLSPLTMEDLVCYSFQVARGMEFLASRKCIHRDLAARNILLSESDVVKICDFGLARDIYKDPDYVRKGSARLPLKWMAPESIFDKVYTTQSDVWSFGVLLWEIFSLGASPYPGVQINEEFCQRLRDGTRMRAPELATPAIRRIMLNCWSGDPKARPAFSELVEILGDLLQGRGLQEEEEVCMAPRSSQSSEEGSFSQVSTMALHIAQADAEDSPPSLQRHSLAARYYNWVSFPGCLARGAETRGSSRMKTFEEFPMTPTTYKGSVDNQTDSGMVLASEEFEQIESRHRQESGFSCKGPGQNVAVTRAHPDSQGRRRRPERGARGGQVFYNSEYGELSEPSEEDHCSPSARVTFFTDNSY
Flt1, sequence (P17948 27-1338, species assumed): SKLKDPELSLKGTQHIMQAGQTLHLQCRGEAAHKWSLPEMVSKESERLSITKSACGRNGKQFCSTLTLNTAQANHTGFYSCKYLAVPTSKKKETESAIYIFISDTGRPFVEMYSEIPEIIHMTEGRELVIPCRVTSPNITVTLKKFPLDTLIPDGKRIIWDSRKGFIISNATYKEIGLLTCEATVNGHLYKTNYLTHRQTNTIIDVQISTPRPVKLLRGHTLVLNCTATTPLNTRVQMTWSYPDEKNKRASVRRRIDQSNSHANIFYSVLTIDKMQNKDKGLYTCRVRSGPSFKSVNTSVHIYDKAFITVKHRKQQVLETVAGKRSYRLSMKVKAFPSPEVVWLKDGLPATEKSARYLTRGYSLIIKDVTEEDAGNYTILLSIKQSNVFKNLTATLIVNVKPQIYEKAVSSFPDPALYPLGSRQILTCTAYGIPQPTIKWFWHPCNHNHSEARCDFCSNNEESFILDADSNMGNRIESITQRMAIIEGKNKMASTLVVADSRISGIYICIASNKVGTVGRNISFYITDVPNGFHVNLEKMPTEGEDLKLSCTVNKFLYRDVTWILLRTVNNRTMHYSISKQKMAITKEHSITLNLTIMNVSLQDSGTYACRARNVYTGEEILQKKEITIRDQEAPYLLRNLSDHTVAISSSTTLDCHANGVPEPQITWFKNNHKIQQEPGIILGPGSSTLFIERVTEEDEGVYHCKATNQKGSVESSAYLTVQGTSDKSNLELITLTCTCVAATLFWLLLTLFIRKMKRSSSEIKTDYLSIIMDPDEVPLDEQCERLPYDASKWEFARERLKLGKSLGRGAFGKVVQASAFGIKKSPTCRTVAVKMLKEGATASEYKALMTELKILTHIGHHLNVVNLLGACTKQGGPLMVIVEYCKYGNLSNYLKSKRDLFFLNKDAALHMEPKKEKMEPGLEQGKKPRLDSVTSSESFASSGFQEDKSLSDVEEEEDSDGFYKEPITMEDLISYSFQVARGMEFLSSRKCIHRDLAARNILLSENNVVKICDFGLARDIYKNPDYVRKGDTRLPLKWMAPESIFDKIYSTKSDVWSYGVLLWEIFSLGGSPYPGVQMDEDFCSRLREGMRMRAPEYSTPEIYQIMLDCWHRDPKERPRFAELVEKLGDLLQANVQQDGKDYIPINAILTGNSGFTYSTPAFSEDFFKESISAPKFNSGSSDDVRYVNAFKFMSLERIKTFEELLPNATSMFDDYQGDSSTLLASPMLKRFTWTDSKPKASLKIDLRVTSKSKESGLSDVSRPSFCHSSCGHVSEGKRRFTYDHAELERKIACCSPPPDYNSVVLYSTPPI

| SMILES | IC50 (Flt4) [nM] | IC50 [1] [nM] | IC50 (Flt1) [nM] |
| --- | --- | --- | --- |
| C=CC(=O)N(C)c1cc(Nc2ncc(Cl)c(NCCCNC(=O)c3ccc(C#N)cc3)n2)ccc1F [Example 7, N-(3-(5-chloro-2-(4-fluoro-3-(N-methylacrylamido)phenylamino)pyrimidinyl-4-amino)propyl)-4-cyano-benzamide] | 107 | 1690 | 698 |
| C=CC(=O)N(C)c1cc(Nc2ncc(Cl)c(NCCCNC(=O)c3ccc(C(F)(F)F)cc3)n2)ccc1F [Example 22, N-(3-(5-chloro-2-(4-fluoro-3-(N-methylacrylamido)phenylamino)pyrimidinyl-4-amino)propyl)-4-trifluoromethylbenzamide] | > 10000 | – | > 10000 |
| C=CC(=O)N(C)c1cc(Nc2ncc(Cl)c(NCCCNC(=O)c3ccc(F)cc3)n2)ccc1F [Example 23, N-(3-(5-chloro-2-(4-fluoro-3-(N-methylacrylamido)phenylamino)pyrimidinyl-4-amino)propyl)-4-fluorobenzamide] | 42 | 1730 | 1230 |
